Values of other authors as cited in patent US8642577B2 (priority 2005, dated 2014).

System: poxvirus
Conditions: in vivo, po

| SMILES | activity against poxvirus when given orally |
| --- | --- |
| Nc1ccn(C[C@@H](CO)OCP(=O)(O)O)c(=O)n1 [CDV, cidofovir] | inactive when given orally |
| Nc1ccn(C[C@H]2COP(=O)(O)CO2)c(=O)n1 [cCDV, cyclic cidofovir] | inactive when given orally |
